Source: US20080014264A1, “NOVEL PHARMACEUTICAL COMPOSITIONS COMPRISING LEVETIRACETAM” (UCB, S.A., priority 2006, published 2008)

Tests used:
[1] = A. J. Gower et al., Eur. J. Pharmacol., 222, 1992; cited from earlier work
[2] = Solubility of the active ingredient; format: physicochemical
Excerpt: In fact levetiracetam is a very soluble active ingredient, so it is difficult to slow down the release. Moreover another problem consists in the reduction of the release rate, while keeping a reasonable size for a high dose of very soluble active ingredient.

solubility [2] | SMILES | activity in the treatment of epilepsy [1]
– | CC[C@H](C(N)=O)N1CCCC1=O [(R)-(+)-alpha-ethyl-2-oxo-1-pyrrolidine acetamide] | completely lacks activity
very soluble | CC[C@@H](C(N)=O)N1CCCC1=O [levetiracetam, (S)-(−)-alpha-ethyl-2-oxo-1-pyrrolidine acetamide] | –
